# Biological target: T1, ligand binding domain of human ROR gamma (Homo sapiens, UniProt P51449)
# T1 construct: NM_001001523; expressed in transfected cells; host or cells: HEK293T
# T1 sequence (P51449 247-497 isoform P51449-2): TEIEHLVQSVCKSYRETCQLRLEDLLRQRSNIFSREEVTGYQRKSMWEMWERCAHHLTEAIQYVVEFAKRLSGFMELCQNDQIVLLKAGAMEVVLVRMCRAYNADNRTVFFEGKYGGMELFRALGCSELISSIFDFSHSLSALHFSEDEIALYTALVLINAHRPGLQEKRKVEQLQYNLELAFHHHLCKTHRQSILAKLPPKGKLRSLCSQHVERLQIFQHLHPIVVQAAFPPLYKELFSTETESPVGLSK
# Test: ROR gamma reporter gene assay (GAL4-RORγ LBD luciferase, Dual-Glo)
# Type: cell-based
# Details: HEK293T cells transfected with pM-ROR gamma, 8 concentrations 3.5 nM to 10.5 μM, 24 h incubation; read-out: result (pIC50, inhibition of RORγ transcriptional activity) (converted)
# Summary of the method: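 Transient GAL4-RORγ LBD (aa 247-497) / 5×UAS-luc / pRL-CMV cotransfection in HEK293T, charcoal-stripped 10% FBS. 8-pt dose, 3.5 nM–10.5 μM, 0.075% DMSO final. 24 h, 37 °C, 5% CO2. Dual-Glo firefly/renilla readout; pIC50 from curve fit.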
smiles,measurement,value
"O=C(CN(Cc1cccnc1)C(=O)c1cnn([C@H]2CC[C@H](C(=O)O)CC2)c1C(F)(F)F)c1c(Cl)cncc1Cl [Example 104, trans-4-(4-((2-(3,5-dichloropyridin-4-yl)-2-oxoethyl)-(pyridin-3-ylmethyl)carbamoyl)-5-(trifluorornethyl)pyrazol-1-yl)cyclohexane-1-carboxylic acid]",IC50,2.04e+06 pM
"O=C(CN(Cc1ccc(F)cc1)C(=O)c1cnn([C@H]2CC[C@](O)(C(=O)O)CC2)c1C(F)(F)F)c1c(Cl)cncc1Cl [Example 105, cis-4-(4-((2-(3,5-dichloropyridin-4-yl)-2-oxoethyl)-((4-fluorophenyl)methyl)carbamoyl)-5-(trifluoromethyl)pyrazol-1-yl)-1-hydroxycyclohexane-1-carboxylic acid]",IC50,204000 pM
"O=C(CN(Cc1ccc(F)cc1)C(=O)c1cnn([C@H]2CC[C@@](O)(C(=O)O)CC2)c1C(F)(F)F)c1c(Cl)cncc1Cl [Example 106, trans-4-(4-((2-(3,5-dichloropyridin-4-yl)-2-oxoethyl)-((4-fluorophenyl)methyl)carbamoyl)-5-(trifluoromethyl)pyrazol-1-yl)-1-hydroxycyclohexane-1-carboxylic acid]",IC50,380000 pM
"O=C(CN(Cc1cc(F)cc(F)c1)C(=O)c1cnn([C@H]2CC[C@H](C(=O)O)CC2)c1C(F)(F)F)c1cc(Cl)ccc1Cl [Example 107, trans-4-(4-((2-(2,5-dichlorophenyl)-2-oxoethyl)-((3,5-difluorophenyl)methyl)carbamoyl)-5-(trifluoromethyl)pyrazol-1-yl)cyclohexane-1-carboxylic acid]",IC50,2.82e+06 pM
"CC(CN(Cc1cc(F)cc(F)c1)C(=O)c1cnn([C@H]2CC[C@H](C(=O)O)CC2)c1C(F)(F)F)c1c(Cl)cccc1Cl (stereo partly drawn) [Example 108, trans-4-(4-(2-(2,6-dichlorophenyl)propyl-((3,5-difluorophenyl)methyl)carbamoyl)-5-(trifluoromethyl)pyrazol-1-yl)cyclohexane-1-carboxylic acid]",IC50,324000 pM
"COC(CN(Cc1cc(F)cc(F)c1)C(=O)c1cnn([C@H]2CC[C@H](C(=O)O)CC2)c1C(F)(F)F)c1c(Cl)cncc1Cl (stereo partly drawn) [Example 109, trans-4-(4-((2-(3,5-dichloropyridin-4-yl)-2-methoxyethyl)-((3,5-difluorophenyl)methyl)carbamoyl)-5-(trifluoromethyl)pyrazol-1-yl)cyclohexane-1-carboxylic acid]",IC50,631000 pM
"CC(C)(C)C#CCN(CC(=O)c1c(Cl)cncc1Cl)C(=O)c1cnn([C@H]2CC[C@H](C(=O)O)CC2)c1C(F)(F)F [Example 110, trans-4-(4-((2-(3,5-dichloropyridin-4-yl)-2-oxoethyl)-(4,4-dimethylpent-2-ynyl)carbamoyl)-5-(trifluoromethyl)pyrazol-1-yl)cyclohexane-1-carboxylic acid]",IC50,162000 pM
"COc1cccc(OC)c1C(=O)CN(Cc1cc(F)cc(F)c1)C(=O)c1cnn([C@H]2CC[C@H](C(=O)O)CC2)c1C(F)(F)F [Example 111, trans-4-(4-((3,5-difluorophenyl)methyl-(2-(2,6-dimethoxyphenyl)-2-oxoethyl)carbamoyl)-5-(trifluoromethyl)pyrazol-1-yl)cyclohexane-1-carboxylic acid]",IC50,355000 pM
"COc1cc(Cl)cc(Cl)c1C(=O)CN(Cc1cc(F)cc(F)c1)C(=O)c1cnn([C@H]2CC[C@H](C(=O)O)CC2)c1C(F)(F)F [Example 112, trans-4-(4-((2-(2,4-dichloro-6-methoxyphenyl)-2-oxoethyl)-((3,5-difluorophenyl)methyl)carbamoyl)-5-(trifluoromethyl)pyrazol-1-yl)cyclohexane-1-carboxylic acid]",IC50,61700 pM
"O=C(CN(Cc1cc(F)cc(F)c1)C(=O)c1cnn([C@H]2CC[C@H](C(=O)O)CC2)c1C(F)(F)F)C1CCCC1 [Example 113, trans-4-(4-((2-cyclopentyl-2-oxoethyl)-((3,5-difluorophenyl)methyl)carbamoyl)-5-(trifluoromethyl)pyrazol-1-yl)cyclohexane-1-carboxylic acid]",IC50,4.57e+06 pM
"C[C@H](N(CC(=O)c1c(Cl)cncc1Cl)C(=O)c1cnn([C@H]2CC[C@H](C(=O)O)CC2)c1C(F)(F)F)C(C)(C)C [Example 114, trans-4-(4-((2-(3,5-dichloropyridin-4-yl)-2-oxoethyl)-((2S)-3,3-dimethylbutan-2-yl)carbamoyl)-5-(trifluoromethyl)pyrazol-1-yl)cyclohexane-1-carboxylic acid]",IC50,2.29e+06 pM
"C[C@@H](N(CC(=O)c1c(Cl)cncc1Cl)C(=O)c1cnn([C@H]2CC[C@H](C(=O)O)CC2)c1C(F)(F)F)C(C)(C)C [Example 115, trans-4-(4-((2-(3,5-dichloropyridin-4-yl)-2-oxoethyl)-((2R)-3,3-dimethylbutan-2-yl)carbamoyl)-5-(trifluoromethyl)pyrazol-1-yl)cyclohexane-1-carboxylic acid]",IC50,158000 pM
"N[C@]1(C(=O)O)CC[C@@H](n2ncc(C(=O)N(CC(=O)c3c(Cl)cncc3Cl)Cc3ccc(F)cc3)c2C(F)(F)F)CC1 [Example 116, cis-4-(4-((2-(3,5-dichloropyridin-4-yl)-2-oxoethyl)-((4-fluorophenyl)methyl)carbamoyl)-5-(trifluoromethyl)pyrazol-1-yl)-1-aminocyclohexane-1-carboxylic acid]",IC50,> 1e+07 pM
"N[C@]1(C(=O)O)CC[C@H](n2ncc(C(=O)N(CC(=O)c3c(Cl)cncc3Cl)Cc3ccc(F)cc3)c2C(F)(F)F)CC1 [Example 117, cis-4-(4-((2-(3,5-dichloropyridin-4-yl)-2-oxoethyl)-((4-fluorophenyl)methyl)carbamoyl)-5-(trifluoromethyl)pyrazol-1-yl)-1-aminocyclohexane-1-carboxylic acid]",IC50,3.55e+06 pM
"CC(C)(CN(Cc1cc(F)cc(F)c1)C(=O)c1cnn([C@H]2CC[C@H](C(=O)O)CC2)c1C(F)(F)F)c1c(Cl)cccc1Cl [Example 118, trans-4-(4-((2-(2,6-dichlorophenyl)-2-methylpropyl)-((3,5-difluorophenyl)methyl)carbamoyl)-5-(trifluoromethyl)pyrazol-1-yl)cyclohexane-1-carboxylic acid]",IC50,1.74e+06 pM
"COc1cncc(OC)c1C(=O)CN(Cc1cc(F)cc(F)c1)C(=O)c1cnn([C@H]2CC[C@H](C(=O)O)CC2)c1C(F)(F)F [Example 119, trans-4-(4-((3,5-difluorophenyl)methyl-(2-(3,5-dimethoxypyridin-4-yl)-2-oxoethyl)carbamoyl)-5-(trifluoromethyl)pyrazol-1-yl)cyclohexane-1-carboxylic acid]",IC50,1.51e+06 pM
"O=C(CN(CC1CCCCN1)C(=O)c1cnn([C@H]2CC[C@H](C(=O)O)CC2)c1C(F)(F)F)c1c(Cl)cncc1Cl (stereo partly drawn) [Example 121, trans-4-(4-((2-(3,5-dichloropyridin-4-yl)-2-oxoethyl)-(piperidin-2-ylmethyl)carbamoyl)-5-(trifluoromethyl)pyrazol-1-yl)cyclohexane-1-carboxylic acid]",IC50,> 1e+07 pM
"Cc1cc(=O)[nH]c(C)c1C(=O)CN(Cc1cc(F)cc(F)c1)C(=O)c1cnn([C@H]2CC[C@H](C(=O)O)CC2)c1C(F)(F)F [Example 122, trans-4-(4-((3,5-difluorophenyl)methyl-(2-(2,4-dimethyl-6-oxo-1H-pyridin-3-yl)-2-oxoethyl)carbamoyl)-5-(trifluoromethyl)pyrazol-1-yl)cyclohexane-1-carboxylic acid]",IC50,> 1e+07 pM
"O=C(CN(CC12CC3CC(CC(C3)C1)C2)C(=O)c1cnn([C@H]2CC[C@H](C(=O)O)CC2)c1C(F)(F)F)c1c(Cl)cncc1Cl [Example 123, trans-4-(4-(1-adamantylmethyl-(2-(3,5-dichloropyridin-4-yl)-2-oxoethyl)carbamoyl)-5-(trifluoromethyl)pyrazol-1-yl)cyclohexane-1-carboxylic acid]",IC50,4900 pM
"CC(C)(C)[C@H]1C[C@H](CN(CC(=O)c2c(Cl)cncc2Cl)C(=O)c2cnn([C@H]3CC[C@H](C(=O)O)CC3)c2C(F)(F)F)C1 [Example 125, trans-4-(4-((3-tert-butylcyclobutyl)methyl-(2-(3,5-dichloropyridin-4-yl)-2-oxoethyl)carbamoyl)-5-(trifluoromethyl)pyrazol-1-yl)cyclohexane-1-carboxylic acid]",IC50,324000 pM
"CC(C)(C)[C@H]1C[C@@H](CN(CC(=O)c2c(Cl)cncc2Cl)C(=O)c2cnn([C@H]3CC[C@H](C(=O)O)CC3)c2C(F)(F)F)C1 [Example 126, trans-4-(4-((3-tert-butylcyclobutyl)methyl-(2-(3,5-dichloropyridin-4-yl)-2-oxoethyl)carbamoyl)-5-(trifluoromethyl)pyrazol-1-yl)cyclohexane-1-carboxylic acid]",IC50,912000 pM
"O=C(CN(Cc1cc(F)cc(F)c1)C(=O)c1cnn([C@H]2CC[C@H](C(=O)O)CC2)c1C(F)(F)F)c1c(Cl)cc(OC(F)(F)F)cc1Cl [Example 127, trans-4-(4-((2-(2,6-dichloro-4-(trifluoromethoxy)phenyl)-2-oxoethyl)-((3,5-difluorophenyl)methyl)carbamoyl)-5-(trifluoromethyl)pyrazol-1-yl)cyclohexane-1-carboxylic acid]",IC50,2.04e+06 pM
